Tests used:
[1] = biological target: T1, beta-catenin-B-cell lymphoma 9 protein complex (Homo sapiens, UniProt P35222); assay: Inhibition of full length C-terminal 6-His-tagged beta-catenin (1 to 781 residues) (unknown origin) expressed in Escherichia coli BL21 (DE3)-N-terminal biotinylated human BCL9 (350 to 375 residues) protein-protein interaction incubated for 1 hr by Alphascreen assay
T1 sequence (P35222 whole entry): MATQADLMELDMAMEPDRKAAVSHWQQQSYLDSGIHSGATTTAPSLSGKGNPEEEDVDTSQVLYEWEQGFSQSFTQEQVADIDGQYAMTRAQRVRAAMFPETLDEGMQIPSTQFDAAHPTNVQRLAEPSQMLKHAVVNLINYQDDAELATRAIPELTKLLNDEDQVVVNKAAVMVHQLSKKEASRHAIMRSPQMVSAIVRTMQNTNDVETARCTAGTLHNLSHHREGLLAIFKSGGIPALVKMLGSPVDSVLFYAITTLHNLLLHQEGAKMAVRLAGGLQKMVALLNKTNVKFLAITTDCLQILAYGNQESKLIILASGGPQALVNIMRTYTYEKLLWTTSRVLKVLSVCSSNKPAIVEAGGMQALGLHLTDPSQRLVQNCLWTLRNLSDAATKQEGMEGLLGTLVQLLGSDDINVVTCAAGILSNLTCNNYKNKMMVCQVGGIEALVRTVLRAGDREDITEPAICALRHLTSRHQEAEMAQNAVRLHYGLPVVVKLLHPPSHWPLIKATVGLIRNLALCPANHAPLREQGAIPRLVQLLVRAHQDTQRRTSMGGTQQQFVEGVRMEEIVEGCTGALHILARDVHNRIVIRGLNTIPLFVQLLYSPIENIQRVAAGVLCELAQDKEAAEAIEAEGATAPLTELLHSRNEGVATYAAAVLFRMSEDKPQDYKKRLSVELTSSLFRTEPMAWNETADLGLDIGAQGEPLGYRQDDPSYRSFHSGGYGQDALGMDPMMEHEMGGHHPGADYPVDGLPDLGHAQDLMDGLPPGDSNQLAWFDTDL
T1 sequence (O00512 whole entry): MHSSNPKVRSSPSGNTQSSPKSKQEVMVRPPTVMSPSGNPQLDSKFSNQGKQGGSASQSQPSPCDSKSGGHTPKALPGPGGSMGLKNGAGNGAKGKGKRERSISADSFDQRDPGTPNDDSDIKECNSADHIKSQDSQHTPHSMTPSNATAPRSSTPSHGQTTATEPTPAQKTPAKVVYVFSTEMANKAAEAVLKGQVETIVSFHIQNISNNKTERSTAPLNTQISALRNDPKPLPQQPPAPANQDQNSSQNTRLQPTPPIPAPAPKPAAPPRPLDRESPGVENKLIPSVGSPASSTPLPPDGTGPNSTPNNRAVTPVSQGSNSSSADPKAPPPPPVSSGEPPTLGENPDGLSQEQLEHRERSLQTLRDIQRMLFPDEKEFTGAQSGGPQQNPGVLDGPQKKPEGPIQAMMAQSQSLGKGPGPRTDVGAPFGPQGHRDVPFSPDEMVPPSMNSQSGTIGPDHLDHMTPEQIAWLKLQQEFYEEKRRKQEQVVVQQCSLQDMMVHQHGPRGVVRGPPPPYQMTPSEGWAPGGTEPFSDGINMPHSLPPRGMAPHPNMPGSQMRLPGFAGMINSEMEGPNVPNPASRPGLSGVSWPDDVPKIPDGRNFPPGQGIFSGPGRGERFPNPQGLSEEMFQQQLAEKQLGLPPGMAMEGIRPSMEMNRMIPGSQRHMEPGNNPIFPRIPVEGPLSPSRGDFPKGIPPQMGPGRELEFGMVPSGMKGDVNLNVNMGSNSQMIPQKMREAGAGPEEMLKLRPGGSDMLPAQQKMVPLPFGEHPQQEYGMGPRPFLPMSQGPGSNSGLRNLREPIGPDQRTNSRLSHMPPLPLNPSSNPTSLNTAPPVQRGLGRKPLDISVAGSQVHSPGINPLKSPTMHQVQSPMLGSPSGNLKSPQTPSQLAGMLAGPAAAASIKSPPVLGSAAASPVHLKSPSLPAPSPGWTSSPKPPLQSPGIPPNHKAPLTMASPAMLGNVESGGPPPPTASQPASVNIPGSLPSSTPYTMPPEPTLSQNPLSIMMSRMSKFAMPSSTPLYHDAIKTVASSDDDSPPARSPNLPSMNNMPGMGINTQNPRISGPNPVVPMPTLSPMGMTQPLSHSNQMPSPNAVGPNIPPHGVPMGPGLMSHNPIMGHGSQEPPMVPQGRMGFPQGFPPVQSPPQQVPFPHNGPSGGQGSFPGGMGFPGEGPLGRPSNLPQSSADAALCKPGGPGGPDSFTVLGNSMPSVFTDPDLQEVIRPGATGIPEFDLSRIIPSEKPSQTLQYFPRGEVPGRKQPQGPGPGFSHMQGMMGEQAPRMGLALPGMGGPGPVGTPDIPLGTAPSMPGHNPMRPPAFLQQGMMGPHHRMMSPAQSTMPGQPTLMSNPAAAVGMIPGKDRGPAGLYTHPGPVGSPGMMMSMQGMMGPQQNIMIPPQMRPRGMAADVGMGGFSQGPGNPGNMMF

[2] = test system: SW480; assay: Antiproliferative activity against human SW480 cells incubated for 72 hrs by MTS assay; assay type: functional, cell-based; conditions: SW480, 72 h
[3] = test system: MDA-MB-231; assay: Antiproliferative activity against human MDA-MB-231 cells incubated for 72 hrs by MTS assay; assay type: functional, cell-based; conditions: MDA-MB-231, 72 h
[4] = test system: MDA-MB-468; assay: Antiproliferative activity against human MDA-MB-468 cells incubated for 72 hrs by MTS assay; assay type: functional, cell-based; conditions: MDA-MB-468, 72 h
[5] = test system: HCT-116; assay: Antiproliferative activity against human HCT116 cells incubated for 72 hrs by MTS assay; assay type: functional, cell-based; conditions: HCT-116, 72 h
[6] = test system: MCF-10A; assay: Antiproliferative activity against human MCF10A cells incubated for 72 hrs by MTS assay; assay type: functional, cell-based
[7] = test system: SW480; assay: Inhibition of Wnt/beta-catenin transactivation signalling in human SW480 cells harboring mutant tcf4 binding sites assessed as relative activity at 3.125 uM incubated for 24 hrs by FOPFlash luciferase assay relative to control; assay type: cell-based; parameters: scale not given: the % may be the effect or the level left
[8] = test system: SW480; assay: Inhibition of Wnt/beta-catenin transactivation signalling in human SW480 cells harboring mutant tcf4 binding sites assessed as relative activity at 12.5 uM incubated for 24 hrs by FOPFlash luciferase assay relative to control; assay type: cell-based; parameters: scale not given: the % may be the effect or the level left
[9] = test system: SW480; assay: Inhibition of Wnt/beta-catenin transactivation signalling in human SW480 cells harboring mutant tcf4 binding sites assessed as relative activity at 6.25 uM incubated for 24 hrs by FOPFlash luciferase assay relative to control; assay type: cell-based; parameters: scale not given: the % may be the effect or the level left
[10] = (§1) Inhibition of Wnt/beta-catenin transactivation signalling in human SW480 cells harboring wild type tcf4 binding sites incubated for 24 hrs by TOPFlash luciferase assay; assay type: cell-based
[11] = test system: SW480; assay: as §1; assay type: cell-based

CC(C)(Oc1cccc(N2CCCC(C(=O)N(Cc3ccc(-c4cn[nH]c4)cc3)C3CC3)C2)c1)C(=O)O (stereo unspecified)
IC50 [1]: > 100 µM | Ki [1]: > 90 µM

CC(C)(Oc1cccc(N2CCCC(C(=O)N(Cc3ccc(-c4cccs4)cc3)C3CC3)C2)c1)C(=O)NS(C)(=O)=O (stereo unspecified)
IC50 [1]: 24 µM | Ki [1]: 21 µM

CC(C)(Oc1cccc(N2CCCC(C(=O)N(Cc3ccc(-c4cccs4)cc3)C3CC3)C2)c1)C(=O)NS(=O)(=O)C1CC1 (stereo unspecified)
IC50 [1]: 23 µM | Ki [1]: 19 µM

CC(C)(Oc1cccc(N2CCCC(C(=O)N(Cc3ccc(-c4ccco4)cc3)C3CC3)C2)c1)C(=O)O (stereo unspecified)
IC50 [1]: 50 µM | Ki [1]: 42 µM

CC(C)c1ccc(CN(C(=O)C2CCCN(c3cccc(OC(C)(C)C(=O)O)c3)C2)C2CC2)cc1 (stereo unspecified)
IC50 [1]: 40 µM | Ki [1]: 36 µM

CC(C)(Oc1cccc(N2CCC[C@@H](C(=O)N(Cc3ccc(-c4cccs4)cc3)C3CC3)C2)c1)C(=O)NS(=O)(=O)c1ccc(C#N)cc1
IC50 [1]: 4.8 µM | Ki [1]: 3.9 µM

CC(C)(Oc1cccc(N2CCCC(C(=O)N(Cc3ccc(-c4cccs4)cc3)C3CC3)C2)c1)C(=O)NS(=O)(=O)c1ccccc1 (stereo unspecified)
IC50 [1]: 7.7 µM | Ki [1]: 6.4 µM

CC(C)(Oc1cccc(N2CCCC(C(=O)N(Cc3ccc(-c4ccsc4)cc3)C3CC3)C2)c1)C(=O)O (stereo unspecified)
IC50 [1]: 35 µM | Ki [1]: 30 µM

Cn1cc(-c2ccc(CN(C(=O)C3CCCN(c4cccc(OC(C)(C)C(=O)O)c4)C3)C3CC3)cc2)cn1 (stereo unspecified)
IC50 [1]: > 100 µM | Ki [1]: > 90 µM

Cn1nccc1-c1ccc(CN(C(=O)C2CCCN(c3cccc(OC(C)(C)C(=O)O)c3)C2)C2CC2)cc1 (stereo unspecified)
IC50 [1]: > 100 µM | Ki [1]: > 90 µM

CC(C)(Oc1cccc(N2CCCC(C(=O)N(Cc3ccc(-c4cccs4)cc3)C3CC3)C2)c1)C(=O)NS(=O)(=O)c1cccc(O)c1 (stereo unspecified)
IC50 [1]: 7.1 µM | Ki [1]: 5.8 µM

CC(C)(Oc1cccc(N2CCCC(C(=O)N(Cc3ccc(-c4ccoc4)cc3)C3CC3)C2)c1)C(=O)O (stereo unspecified)
IC50 [1]: > 100 µM | Ki [1]: > 90 µM

CC(C)(Oc1cccc(N2CCCC(C(=O)N(Cc3ccc(-c4cccs4)cc3)C3CC3)C2)c1)C(=O)NS(=O)(=O)c1cccc(C#N)c1 (stereo unspecified)
IC50 [1]: 6.3 µM | Ki [1]: 5.1 µM

CC(C)(C)OC(=O)C(C)(C)Oc1cccc(N2CCCC(C(=O)N(Cc3ccc(-c4cccs4)cc3)C3CC3)C2)c1 (stereo unspecified)
IC50 [2]: > 200 µM | IC50 [3]: > 200 µM | IC50 [4]: > 200 µM | IC50 [5]: > 200 µM | IC50 [6]: > 200 µM | IC50 [1]: > 100 µM | Ki [1]: > 90 µM

COc1ccc(S(=O)(=O)NC(=O)C(C)(C)Oc2cccc(N3CCCC(C(=O)N(Cc4ccc(-c5cccs5)cc4)C4CC4)C3)c2)cc1 (stereo unspecified)
IC50 [1]: 6.1 µM | Ki [1]: 4.9 µM

CC(C)c1ccc(CNC(=O)C2CCCN(c3cccc(OC(C)(C)C(=O)O)c3)C2)cc1 (stereo unspecified)
IC50 [1]: 83 µM | Ki [1]: 71 µM

CCN(Cc1ccc(C(C)C)cc1)C(=O)C1CCCN(c2cccc(OC(C)(C)C(=O)O)c2)C1 (stereo unspecified)
IC50 [1]: 59 µM | Ki [1]: 50 µM

CC(C)(Oc1cccc(N2CCCC(C(=O)N(Cc3ccc(-c4cccs4)cc3)C3CC3)C2)c1)C(=O)O (stereo unspecified)
IC50 [2]: 137 µM | IC50 [3]: 103 µM | IC50 [4]: 95.9 µM | IC50 [5]: 112 µM | IC50 [6]: 98.5 µM | IC50 [1]: 15 µM | Ki [1]: 13 µM

CC(C)S(=O)(=O)NC(=O)C(C)(C)Oc1cccc(N2CCCC(C(=O)N(Cc3ccc(-c4cccs4)cc3)C3CC3)C2)c1 (stereo unspecified)
IC50 [1]: 13 µM | Ki [1]: 11 µM

CC(C)c1ccc(CN(C)C(=O)C2CCCN(c3cccc(OC(C)(C)C(=O)O)c3)C2)cc1 (stereo unspecified)
IC50 [1]: 71 µM | Ki [1]: 59 µM

COc1cccc(S(=O)(=O)NC(=O)C(C)(C)Oc2cccc(N3CCC[C@H](C(=O)N(Cc4ccc(-c5cccs5)cc4)C4CC4)C3)c2)c1
Activity [7]: 98% | IC50 [2]: 28.2 µM | IC50 [3]: 19.8 µM | IC50 [4]: 15.4 µM | IC50 [5]: 29.9 µM | Activity [8]: 54% | IC50 [6]: 30.4 µM | Activity [9]: 81% | IC50 [10]: 7.8 µM | Activity [11]: Dose-Dependent Effect | IC50 [1]: 2.9 µM | Ki [1]: 2.3 µM

COc1cccc(S(=O)(=O)NC(=O)C(C)(C)Oc2cccc(N3CCC[C@@H](C(=O)N(Cc4ccc(-c5cccs5)cc4)C4CC4)C3)c2)c1
IC50 [1]: 5.7 µM | Ki [1]: 4.6 µM

CC(C)c1ccc(CCNC(=O)C2CCCN(c3cccc(OC(C)(C)C(=O)O)c3)C2)cc1 (stereo unspecified)
IC50 [1]: 92 µM | Ki [1]: 82 µM

CC(C)(Oc1cccc(N2CCCC(C(=O)N(Cc3ccc(-c4ccn[nH]4)cc3)C3CC3)C2)c1)C(=O)O (stereo unspecified)
IC50 [1]: 72 µM | Ki [1]: 61 µM

CC(C)(Oc1cccc(N2CCCC(C(=O)N(Cc3ccc(-c4cccs4)cc3)C3CC3)C2)c1)C(=O)NS(=O)(=O)c1ccc(C#N)cc1 (racemic)
IC50 [1]: 4.8 µM | Ki [1]: 3.9 µM

COc1cccc(S(=O)(=O)NC(=O)C(C)(C)Oc2cccc(N3CCCC(C(=O)N(Cc4ccc(-c5cccs5)cc4)C4CC4)C3)c2)c1 (stereo unspecified)
IC50 [1]: 5.1 µM | Ki [1]: 4.1 µM

CC(C)c1ccc(CN(C(=O)C2CCCN(c3cccc(OC(C)(C)C(=O)O)c3)C2)C(C)C)cc1 (stereo unspecified)
IC50 [1]: 52 µM | Ki [1]: 46 µM

COC(=O)C(C)(C)Oc1cccc(N2CCCC(C(=O)N(Cc3ccc(-c4cccs4)cc3)C3CC3)C2)c1 (stereo unspecified)
IC50 [1]: > 100 µM | Ki [1]: > 90 µM
